Legend:
[1] = test system: Cumulus enclosed oocyte (CEO); assay: Oocyte test, cumulus enclosed oocytes (CEO); assay type: cell-based, mice; conditions: HX-medium, 24 hours culture
Procedure: (§1) Animals: Immature female mice (B6D2-F1, strain C57B1/2J) were kept under controlled lighting (14 hr light, 10 hr dark) and temperature, with food and water ad libitum. When the animals reached a weight of 13-16 grams (which correspond to the age of 20 to 22 days post partum) they were given a single injection (i.p.) of human menopausal gonadotropin (Humegon, Organon, The Netherlands) containing approximately 20 IU FSH and 20 IU LH (Ziebe, S. et al. Hum. Reprod. 8(1993) 385-88). 48 hours later the animals were killed by cervical dislocation.
(§2) Collection and culture of oocytes: The ovaries were removed, placed in HX-medium (se below) and freed of extraneous tissue. The collection- and culture medium consisted of Eagles minimum essential medium (Flow, USA), containing 4 mM hypoxanthine, 3 mg/ml of bovine serum albumin, 0.23 mM sodium pyruvate, 2 mM glutamine, 100 U/ml of penicillin, and […] of streptomycin (all Sigma, USA). This medium is termed HX-medium. The same medium but without HX was used as control medium.
(§3) The antral follicles of the ovaries were punctured under a dissecting microscope using a 27-gauge needle. Cumulus enclosed oocyte (CEO) of uniform size were selected and rinsed three times in fresh HX-medium.
(§4) Oocytes freed from cumulus cells, i.e. denuded oocytes, DO, were obtained by gentle flushing CEO through a fine-bore mouth-controlled pipet. CEO and DO were cultured in 4-well multidishes (Nunclon, Denmark) containing 0.5 ml of HX-medium except the controls which were cultured in control medium. Each well contained 35 to 50 oocytes.
(§5) The cultures were performed at 37° C. and 100% humidity with 5% CO2 in air. The culture time was 24 hours.
(§6) Examination of oocytes: By the end of the culture period the number of oocytes with germinal vesicle (GV) or germinal vesicle breakdown (GVBD) and those with polar body (PB) was counted in an inverted microscope with differential interference contrast equipment. The percentage of oocytes with GVBD per total number of oocytes and the percentage of oocytes with PB per GVBD was calculated. One unit of MIS activity is defined as: [formula]
(§7) and the number of MIS activity units is calculated as: [formula]

[2] = test system: denuded oocytes, DO; assay: Oocyte test, denuded oocytes (DO); assay type: cell-based, mice; conditions: HX-medium, 24 hours culture
Procedure: as §1, §2, §3, §4, §5, §6, §7

[3] = test system: oocytes of isolated perfused ovaries; assay: GVB in isolated perfused ovaries from immature rats; set-up: species or system Immature Sprague-Dawley rats; conditions: for % GVB (oocytes undergoing germinal vesicle breakdown per total oocytes per ovary), mean±sd: perfusion up to 12 h, 7 ovaries
Procedure: Animals and Experimental Procedure: Immature Sprague-Dawley rats (body weight: 50-55 g) were injected s.c. with 20 IU pregnant mare serum gonadotropin (PMSG). 48 hours later, the rats were anesthetized with a combination of Ketavet/Rompun (105 and 8.3 mg/kg BW, respectively). Heparin sulfate (300 IU) was injected into the tail vein.
Ovaries with connecting vasculature were surgically isolated and perfusions were performed in a recirculating system (Koos RD et al. (1984) Biol Reprod 30:1135-1141) containing approximately 35 ml of perfusion medium (Medium 199 with Earle's salts supplemented with 50 μg/ml gentamycin sulfate, 0.2 IU/ml insulin, and 4% BSA).
The ovaries were initially perfused for approximately 1 hour to allow metabolic stabilization of the tissue. Only the ovarian specimens which maintained a flow rate between 0.8 and 1.5 ml/min at pressure of 80 mmHg during the stabilization period were used in the experiments.
After 1 hour of preperfusion, the effect of 4,4-dimethyl-5^α-cholesta-8,14,24-triene-3^β-ol (FF-MAS), IBMX (iso-butyl-methyl-xanthine), LH (luteinizing hormone), and cholesterol were tested by dividing the ovarian specimens into control and experimental groups. Additions to the perfusion medium were made as follows:
Prior to addition to the perfusion medium, FF-MAS and cholesterol were diluted in ethanol, and LH and IBMX were diluted in perfusion medium. For the investigation of meiosis, perfusions were continued up to 12 h after addition of the compounds.
At termination of each perfusion ovaries were dissected free from adherent tissue and oocytes isolated under a stereo microscope by manual rupture of the follicles using a pair of 27 gauge needles. Oocytes per ovary were counted and examined using Nomarski differential interference contrast optics.
Oocytes with a germinal vesicle breakdown (GVB) were regarded as undergoing meiotic maturation (Tsafiri et al. (1980) J. Reprod. Fertil. 60:399-402). The % GVB, defined as percentage of oocytes undergoing GVB per total number of oocytes in each ovary was calculated. Each experimental group consisted of 7 perfused ovaries. Data are presented as mean±sd. Statistical differences were calculated by one-way ANOVA followed by Students's t-test. P-values<0.05 indicated a statistically significant higher % GVB in treated groups compared to the control.

CC(=O)OC1CC[C@]2(C)C3=C(CCC2C1(C)C)C1=CC[C@H]([C@H](C)CCCC(C)C)[C@@]1(C)CC3 (some centres unmarked)
melting point: 120 to 125 °C

CC(C)=CCC[C@@H](C)[C@H]1CC[C@H]2C3=C(CC[C@]12C)[C@@]1(C)CC[C@H](O)C(C)(C)[C@@H]1CC3 [4,4-Dimethyl-zymosterol, 4,4-dimethyl-^5α-cholesta-8,24-diene-^3β-ol]
CEO, units of MIS activity ([1]; 0.002 μg/ml): 1.0 units of MIS activity
CEO, units of MIS activity ([1]; 0.02 μg/ml): 1.3 units of MIS activity
CEO, units of MIS activity ([1]; 0.2 μg/ml): 1.3 units of MIS activity
CEO, units of MIS activity ([1]; 0.3 μg/ml): 2.7 units of MIS activity
CEO, units of MIS activity ([1]; 1.2 μg/ml): 2.9 units of MIS activity
DO, units of MIS activity ([2]; 0.002 μg/ml): 0.9 units of MIS activity
DO, units of MIS activity ([2]; 0.02 μg/ml): 1.5 units of MIS activity
DO, units of MIS activity ([2]; 0.2 μg/ml): 0.6 units of MIS activity
DO, units of MIS activity ([2]; 0.3 μg/ml): 1.8 units of MIS activity
DO, units of MIS activity ([2]; 1.2 μg/ml): 2.7 units of MIS activity

CC(C)CCC[C@@H](C)[C@H]1CC[C@H]2C3=C(CC[C@]12C)[C@@]1(C)CC[C@H](O)C(C)(C)C1CC3 (stereo partly drawn) [4,4-Dimethylcholest-8-ene-^3β-ol]
CEO, units of MIS activity ([1]; 0.03 μg/ml): 12.8 units of MIS activity
DO, units of MIS activity ([2]; 0.03 μg/ml): 0.8 units of MIS activity

CC(C)CCC[C@@H](C)[C@H]1CC=C2C3=C(CC[C@@]21C)[C@@]1(C)CC[C@H](O)C(C)(C)C1CC3 (stereo partly drawn) [4,4-Dimethylcholesta-8,14-dien-^3β-ol, 4,4-Dimethylcholesta-8,14-Dien-^3β-ol]
CEO, units of MIS activity ([1]; 3.0 μg/ml): 0 units of MIS activity
DO, units of MIS activity ([2]; 3.0 μg/ml): 2.25 units of MIS activity

CC(C)=CCC[C@@H](C)[C@H]1CC=C2C3=C(CC[C@@]21C)[C@@]1(C)CC[C@H](O)C(C)(C)[C@@H]1CC3 [4,4-dimethyl-^5α-cholesta-8,14,24-triene-^3β-ol]
CEO, units of MIS activity ([1]; 0.03 μg/ml): 0.5 units of MIS activity
CEO, units of MIS activity ([1]; 0.3 μg/ml): 2.3 units of MIS activity
% GVB (oocytes undergoing germinal vesicle breakdown per total oocytes per ovary), mean±sd ([3]; 30 μM with 0.2 mM IBMX): 14.6±4.2%
% GVB (oocytes undergoing germinal vesicle breakdown per total oocytes per ovary), mean±sd ([3]; 60 μM with 0.2 mM IBMX): 66.9±7.4%
effective dose ([3]; corresponds to the effective 30-60 μM in perfused rat ovaries): 12-24 mg/liter bood volume
DO, units of MIS activity ([2]; 0.03 μg/ml): 1.6 units of MIS activity
DO, units of MIS activity ([2]; 0.3 μg/ml): 0.6 units of MIS activity

CC(C)=CCC[C@@H](C)[C@H]1CC[C@H]2C3=C(CC[C@]12C)[C@@]1(C)CC[C@H](O)C[C@@H]1CC3 [Zymosterol]
CEO, units of MIS activity ([1]; 0.001 μg/ml): 0.2 units of MIS activity
CEO, units of MIS activity ([1]; 0.01 μg/ml): 0.4 units of MIS activity
CEO, units of MIS activity ([1]; 0.1 μg/ml): 1.1 units of MIS activity
DO, units of MIS activity ([2]; 0.01 μg/ml): 0.6 units of MIS activity
DO, units of MIS activity ([2]; 0.1 μg/ml): 1.2 units of MIS activity

CC(C)=CCC[C@@H](C)[C@H]1CC[C@H]2C3=C(CC[C@]12C)[C@@]1(C)CC[C@H](O)[C@H](C)[C@@H]1CC3 [^4β-Methylzymosterol, 4^β-Methylzymosterol]
CEO, units of MIS activity ([1]; 0.13 μg/ml): 2.4 units of MIS activity
CEO, units of MIS activity ([1]; 3.9 μg/ml): 3.5 units of MIS activity
DO, units of MIS activity ([2]; 0.13 μg/ml): 0.8 units of MIS activity
DO, units of MIS activity ([2]; 3.9 μg/ml): 6.2 units of MIS activity

CC(C)CCC[C@@H](C)[C@H]1CC[C@H]2[C@@H]3CC=C4C[C@@H](O)CC[C@]4(C)[C@H]3CC[C@]12C [cholesterol, reference compound]
% GVB (oocytes undergoing germinal vesicle breakdown per total oocytes per ovary), mean±sd ([3]; 60 μM with 0.2 mM IBMX): 2.1±1.8%

From patent US20030004148A1, “Regulation of meiosis” (priority 1994, published 2003)
